# Test results published in article PMC2948605 (Clinical cancer research : an official journal of the …, 2010).
# What was measured:
# [1] = system: dogs with spontaneous cancer
# treatment-naïve lymphoma = conditions: DOX alone, treatment-naïve lymphoma in dogs; cited from earlier work
# [2] = system: WBC and neutrophil counts; assay: Complete blood counts for myelosuppression; format: in vivo, dog
# [3] = system: acetylated histone H3 in PBMC; assay: PBMC histone H3 acetylation by immunofluorescence; format: in vivo, dog; conditions: fourteen evaluable PBMC samples, data not shown
# human patients = conditions: cited from earlier work
# [4] = Serum trough VPA concentration; format: in vivo, dog; conditions: 48 h after start of oral VPA, before fifth dose
# [5] = system: canine and human osteosarcoma cells; conditions: cited from earlier work
# [6] = Doxorubicin and doxorubicinol pharmacokinetics in plasma by LC/MS/MS; format: in vivo, dog; conditions: three dogs, highest VPA cohort (240 mg/kg/day), IV DOX
structure (smiles),measurement,setting,value
"COc1cccc2c1C(=O)c1c(O)c3c(c(O)c1C2=O)C[C@@](O)(C(=O)CO)C[C@@H]3O[C@H]1C[C@H](N)[C@H](O)[C@H](C)O1 [DOX, doxorubicin]",Cardiotoxicity,"[1]; VPA pre-treated dogs, not directly evaluated, cumulative DOX dose < 150 mg/m^2",did not observe any obvious cardiotoxicity
same,Reported remission rates,treatment-naïve lymphoma,60-85%
"CCCC(CCC)C(=O)O [VPA, valproic acid]",Grade 3 metabolic event (ALKP > 5× ULN),"[1]; 180/90 mg/kg cohort, patient with Stage 5 lymphoma",single Grade 3 metabolic event
same,Grade 2 anorexia,[1]; 210/105 mg/kg cohort,single Grade 2 anorexia
same,Dose limiting toxicities,[1]; dogs at 240 mg/kg/day,no dose limiting toxicities
same,Tolerability,"[1]; oral VPA, all dose-escalation cohorts",well tolerated in all dose-escalation cohorts
same,Maximum tolerated dose (MTD),"[1]; oral VPA, cohorts up to 240/120 mg/kg loading/maintenance",No maximum tolerated dose (MTD) was reached
same,VPA dose that can be administered prior to a standard dose of DOX,"[1]; oral divalproex for 48 h before DOX, tumor-bearing dogs",up to 240 mg/kg/day
same,Myelosuppression induced by VPA,"[2]; doses up to 240 mg/kg/day, day 3 vs day 1 WBC and neutrophils",does not induce any significant myelosuppression
same,Potentiation of DOX induced myelosuppression,[2]; nadir WBC and neutrophil count day 7 post DOX vs VPA dose,no potentiation of DOX induced myelosuppression
same,Correlation of fold change in PBMC histone H3 acetylation with trough VPA levels,[3],did not correlate
same,MTD in human Phase I studies,human patients,140 mg/kg/day
same,Trough serum VPA level reached,[4],up to 0.5 mM
same,Effect of VPA pre-treatment on sensitivity to doxorubicin,[5]; canine and human osteosarcoma cells,results in sensitization to doxorubicin
same,VPA level capable of chemosensitization in vitro,[5]; previous work,0.5 mM
COc1cccc2c1C(=O)c1c(O)c3c(c(O)c1C2=O)C[C@@](O)([C@@H](O)CO)C[C@@H]3O[C@H]1C[C@H](N)[C@H](O)[C@H](C)O1 [doxorubicinol],PK of the major metabolite versus historical controls receiving DOX alone,[6],no significant changes
